Experimental data as given in ChEMBL document CHEMBL2216751, “PI3Kδ and PI3Kγ as targets for autoimmune and inflammatory diseases” (J Med Chem, 2012).
Each block holds one molecule with its values, some of them ahead of it.

Experiments:
[1] = Oral bioavailability in Han-Wistar rat; type: ADME, organism-based; conditions: in vivo
[2] = target: T1, Phosphatidylinositol 4,5-bisphosphate 3-kinase catalytic subunit delta isoform (Homo sapiens, UniProt O00329); conditions: for IC50: read-out: IC50
T1 sequence (O00329 whole entry): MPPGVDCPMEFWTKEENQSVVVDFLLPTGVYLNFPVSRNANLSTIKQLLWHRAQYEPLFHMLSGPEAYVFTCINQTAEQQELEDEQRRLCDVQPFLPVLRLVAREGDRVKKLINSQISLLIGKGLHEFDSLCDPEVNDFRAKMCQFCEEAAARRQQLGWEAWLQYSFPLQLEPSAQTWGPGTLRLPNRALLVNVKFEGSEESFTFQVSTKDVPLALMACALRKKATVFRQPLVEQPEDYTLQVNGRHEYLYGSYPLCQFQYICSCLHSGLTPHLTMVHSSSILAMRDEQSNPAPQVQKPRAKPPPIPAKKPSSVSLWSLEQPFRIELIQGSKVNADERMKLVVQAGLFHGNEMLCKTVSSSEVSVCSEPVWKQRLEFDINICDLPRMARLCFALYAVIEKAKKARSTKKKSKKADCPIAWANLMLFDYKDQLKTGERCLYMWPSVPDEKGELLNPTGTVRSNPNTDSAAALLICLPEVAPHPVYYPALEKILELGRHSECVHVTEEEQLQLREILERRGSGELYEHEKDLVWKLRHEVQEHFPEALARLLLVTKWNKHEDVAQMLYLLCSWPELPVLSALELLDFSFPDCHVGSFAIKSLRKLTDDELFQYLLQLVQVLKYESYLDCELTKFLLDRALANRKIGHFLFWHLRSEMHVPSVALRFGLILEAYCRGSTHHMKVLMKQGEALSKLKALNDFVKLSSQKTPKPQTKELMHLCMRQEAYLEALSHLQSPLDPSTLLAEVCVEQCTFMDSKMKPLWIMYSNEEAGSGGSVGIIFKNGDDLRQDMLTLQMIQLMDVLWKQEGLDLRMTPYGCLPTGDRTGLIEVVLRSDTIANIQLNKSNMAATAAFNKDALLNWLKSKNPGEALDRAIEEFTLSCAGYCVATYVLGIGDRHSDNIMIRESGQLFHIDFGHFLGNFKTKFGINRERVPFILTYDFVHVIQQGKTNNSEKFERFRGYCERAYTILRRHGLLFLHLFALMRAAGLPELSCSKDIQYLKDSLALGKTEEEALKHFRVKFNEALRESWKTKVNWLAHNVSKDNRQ

[3] = target: T1, Phosphatidylinositol 4,5-bisphosphate 3-kinase catalytic subunit delta isoform; assay: Inhibition of PI3Kdelta in human whole blood assessed as inhibition of CD69 production in B lymphocyte by immunoassay
[4] = target: Phosphatidylinositol 4,5-bisphosphate 3-kinase catalytic subunit gamma isoform (Homo sapiens, UniProt P48736); assay: Inhibition of PI3Kgamma-mediated Akt phosphorylation in T cells by flow cytometry; type: cell-based, T-cell
Sequence of Phosphatidylinositol 4,5-bisphosphate 3-kinase catalytic subunit gamma isoform (P48736 whole entry, canonical isoform): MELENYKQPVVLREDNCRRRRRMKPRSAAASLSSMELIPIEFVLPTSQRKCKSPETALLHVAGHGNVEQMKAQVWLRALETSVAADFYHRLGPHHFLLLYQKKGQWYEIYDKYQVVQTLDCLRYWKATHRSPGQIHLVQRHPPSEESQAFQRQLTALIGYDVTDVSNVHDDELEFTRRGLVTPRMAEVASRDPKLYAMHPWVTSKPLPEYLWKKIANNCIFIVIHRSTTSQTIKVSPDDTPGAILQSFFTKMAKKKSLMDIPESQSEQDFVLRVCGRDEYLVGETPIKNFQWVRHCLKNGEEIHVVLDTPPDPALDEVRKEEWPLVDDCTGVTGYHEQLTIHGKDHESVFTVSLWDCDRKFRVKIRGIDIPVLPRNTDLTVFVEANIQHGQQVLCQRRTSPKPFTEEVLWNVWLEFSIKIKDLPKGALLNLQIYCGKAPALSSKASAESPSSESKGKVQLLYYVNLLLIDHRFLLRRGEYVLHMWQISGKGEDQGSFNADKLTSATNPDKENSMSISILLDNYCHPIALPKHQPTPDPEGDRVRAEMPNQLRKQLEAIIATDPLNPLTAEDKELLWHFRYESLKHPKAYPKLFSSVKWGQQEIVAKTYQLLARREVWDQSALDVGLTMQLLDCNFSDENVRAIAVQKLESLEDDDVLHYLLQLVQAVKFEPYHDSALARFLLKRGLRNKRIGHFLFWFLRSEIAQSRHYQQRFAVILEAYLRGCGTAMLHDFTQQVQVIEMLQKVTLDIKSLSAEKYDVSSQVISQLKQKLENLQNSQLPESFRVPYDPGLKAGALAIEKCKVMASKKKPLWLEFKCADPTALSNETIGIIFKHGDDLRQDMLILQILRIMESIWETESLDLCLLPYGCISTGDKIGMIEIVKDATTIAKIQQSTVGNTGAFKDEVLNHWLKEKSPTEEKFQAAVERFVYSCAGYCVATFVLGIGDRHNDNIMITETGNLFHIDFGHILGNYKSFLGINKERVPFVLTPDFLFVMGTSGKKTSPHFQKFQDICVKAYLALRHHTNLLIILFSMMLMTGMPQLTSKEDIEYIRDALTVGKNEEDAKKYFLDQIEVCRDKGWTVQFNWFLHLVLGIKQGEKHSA

[5] = system: Homo sapiens; assay: Toxicity in healthy human administered bid up to 7 days; type: organism-based; conditions: in vivo, 168 h
[6] = organism: Homo sapiens; assay: Toxicity in healthy human; type: organism-based; conditions: in vivo
[7] = organism: Homo sapiens; assay: Antitumor activity in Non-Hodgkin Lymphoma patient assessed as clinical response rate at 50 to 350 mg, bid; type: functional
[8] = Clearance in Han-Wistar rat; type: ADME, organism-based; conditions: in vivo
[9] = target: T1, Phosphatidylinositol 4,5-bisphosphate 3-kinase catalytic subunit delta isoform; assay: Inhibition of PI3Kdelta in neutrophil assessed as inhibition of superoxide production by cell-based assay
[10] = target: T1, Phosphatidylinositol 4,5-bisphosphate 3-kinase catalytic subunit delta isoform; assay: Inhibition of PI3Kdelta in human PBMC
[11] = target: Serine/threonine-protein kinase mTOR (Homo sapiens) (UniProt P42345); assay: Inhibition of mTOR

Compound: Cc1ccc(-c2ccc3c(c2)N(C2=NC4CC(C)(C)NC(=O)C4S2)CCO3)nn1 (centres undefined)
bioavailability [1]: 66%

Compound: OCCn1cnc2c(-n3c(C(F)F)nc4ccccc43)nc(N3CCOCC3)nc21
IC50 [2]: < 30 nM

Compound: CC(C)c1nc2ccccc2n1-c1nc(N2CCOCC2)c2nc(OC3CN(C4CCS(=O)(=O)CC4)C3)n(C)c2n1
IC50 [3]: 3 nM

Compound: CC(=O)Nc1nc2c(s1)-c1c(c(C3CC3)nn1C1CCC(C(=O)N[C@H]3CC[C@H](N4CCCC4)CC3)CC1)CC2 (some centres undefined)
IC50 [2]: < 600 nM

Compound: CC[C@H]1CN(c2sc(-c3nnc[nH]3)c(-c3ccc(Cl)cc3Cl)c2C#N)CCO1
IC50 [2]: < 100 nM

Compound: CC(=O)NCCNS(=O)(=O)c1ccc(-c2sc(NC(C)=O)nc2C)o1
Ki [2]: 100 nM

Compound: CC[C@H](Nc1ncnc2[nH]cnc12)c1nc2cccc(F)c2c(=O)n1-c1ccccc1 [IDELALISIB]
MTD [5]: 200 mg | MTD [6]: 400 mg | Activity [7]: 56%

Compound: Cn1cc(-c2ccc3c(c2)N(C2=NC4CC(C)(C)NC(=O)C4S2)CCO3)cn1 (centres undefined)
clearance [8]: 7 mL/min/kg | bioavailability [1]: 97% | IC50 [9]: 111 nM

Compound: CC(=O)Nc1nc2ccc(-c3nn(C4CCCC4)c4ncnc(N)c34)cc2s1
IC50 [2]: < 50 nM | INH [11]: < 0.05 µM

Compound: CC(=O)Nc1nc(C)c(-c2csc(C(=O)Nc3nnn[nH]3)n2)s1
IC50 [2]: 13 nM

Compound: CCNC(=O)Nc1nc2ccc(-c3cncc(C(F)(F)F)c3)cc2s1
Ki [2]: 10 nM

Compound: Cn1c(C(=O)NCC(F)(F)F)nc2c(N3CCC(n4c(=O)[nH]c5ncccc54)CC3)ncnc21
IC50 [2]: < 50 nM

Compound: c1ccc2c(N3CCOCC3)nc(-c3cccc4[nH]ccc34)cc2c1
IC50 [2]: 260 nM

Compound: Cc1cccc2cc(Cn3cnc4c(N)ncnc43)c(N(C)CC3CCCN3C)nc12 (centres undefined)
IC50 [2]: < 50 nM

Results, then the molecule that gave them:

IC50 [2]: 6 nM
Compound: C[C@H](Nc1ncnc2[nH]cnc12)c1nc2ccsc2c(=O)n1-c1ccccc1

IC50 [3]: 17.8 nM
Compound: Cc1nc2ccccc2n1-c1nc(N2CCOCC2)c2oc(CN3CCN(C(C)(C)C(N)=O)CC3)cc2n1

Ki [2]: 3 nM
Compound: CCN(CC)C(=O)c1cccc(Nc2nc3ccc(-c4cncc(OC)c4)cc3s2)n1

Ki [2]: 2.85 nM
Compound: Cc1c(-c2ccccn2)nc2cc(F)cc(F)c2c1Nc1cc(N2CCOCC2)cnc1-c1ccc(O)cc1

IC50 [2]: < 100 nM
Compound: Cc1cccc2cc(C(C)Nc3ncnc4[nH]cnc34)nc(OC3CCN(C)CC3)c12 (centres undefined)

pIC50 [2]: >= 5 | IC50 [4]: ≤ 10000 nM
Compound: O=C(Nc1cc(-c2cnc3[nH]ncc3c2)cc2[nH]ncc12)c1cccc(CN2CCS(=O)(=O)CC2)n1

IC50 [2]: < 2000 nM
Compound: COc1ccc(-c2nn(C)c3nc(N)nc(NCc4ccccc4)c23)cc1F

IC50 [2]: 3 nM
Compound: COc1cc2c(CC3CCCC(C)C3)c(C(=O)Nc3nn[nH]n3)sc2cc1C (centres undefined)

pIC50 [2]: >= 5 | IC50 [10]: ≤ 10000 nM
Compound: COc1ccccc1S(=O)(=O)Nc1cc(-c2cc(NC(=O)c3csc(CN4C[C@@H](C)O[C@@H](C)C4)n3)c3cn[nH]c3c2)cnc1OC

IC50 [2]: < 100 nM
Compound: CC(=O)Nc1nc(C)c(-c2ccc(Cl)c(S(=O)(=O)N[C@@H](C)C(=O)OC3CCCC3)c2)s1

pIC50 [2]: >= 5
Compound: C[C@@H]1CN(Cc2nnc(-c3cc(-c4cccc5[nH]ccc45)cc4[nH]ncc34)o2)C[C@H](C)O1

IC50 [2]: 5.9 nM
Compound: COc1ccc(NC(=O)c2c(C)oc3ncn(CC(C)C)c(=O)c23)cc1

pIC50 [2]: >= 5
Compound: O=C(CN1CCOCC1)Nc1cc(-c2cc(F)cc3[nH]ccc23)cc2[nH]ncc12
